# Assays:
# [1] = 1-octanol/PBS partition coefficient (Log P); assay type: physicochemical; settings: for Partition coefficients of 1-octanol/PBS: room temperature, PBS pH 7.4, quintuplicate
# MDA-MB-231 tumor = assay: microPET imaging of subcutaneous MDA-MB-231 tumor-bearing nude mice; assay type: in vivo; settings: MDA-MB-231 tumor model; for tumor uptake: intravenous, n=3
# Experimental: (§1) After the intravenous injection of [^18F]FMAU at 1 h and 2 h, the mice (n=3/group) were scanned through a microPET imaging system. […] For microPET scans, radioactivity accumulations in tumors and major tissues/organs were quantified by calculating the ROIs that comprised the entire organ on the coronal images.
# (§2) Tumor cells were cultured in Dulbecco's Modified Eagle Medium (DMEM) supplemented with 10% fetal bovine serum at 37° C. in a humidified incubator containing 5% CO2.
# (§3) Both MDA-MB-231 and U-87 MG tumor xenograft models (n=3/group) were generated by subcutaneous injection of 5×10^6 tumor cells into the front right flank of female athymic nude mice (4-6 weeks old) purchased from Envigo Inc., Indianapolis, IN. The tumors were permitted to grow 2-4 weeks until approximate 0.6-0.8 cm^3 in volume.
# (§4) MicroPET scans were carried out using a rodent scanner (Siemens Inveon microPET scanner, Siemens Medical Solutions). About 7.4 MBq (200 μCi) of [^18F]FMAU was injected through the tail vein under isoflurane anesthesia condition. Five-minute static scans were obtained at 60- and 120-min post-injection (p.i.). The 3D-OSEM algorithm was applied for image reconstruction. For each microPET scan, the regions of interest (ROIs) were drawn over tumor, muscle, liver, and kidneys on the decay-corrected whole-body coronal images. The tumor-to-muscle (T/M), tumor-to-liver (T/L), and tumor-to-kidney (T/K) ratios were then calculated.
# U-87 MG tumor = assay: microPET imaging of subcutaneous U-87 MG tumor-bearing nude mice; assay type: in vivo; settings: U-87 MG tumor model; for tumor uptake: intravenous, n=3
# Experimental: as §1, §2, §3, §4
# [2] = 1-octanol/PBS pH 7.4, room temperature, quintuplicate
structure (smiles),measurement,setting,value
"O=c1ccn([C@@H]2O[C@H](CO)[C@@H](O)[C@@H]2[18F])c(=O)[nH]1 [[^18F]FAU, 2′-Deoxy-2′-[^18F]fluoro-1-β-D-arabinofuranosyluracil]",Log P,[1]; [2],−0.943±0.041
same,Partition coefficients of 1-octanol/PBS,[1],0.114 ± 0.011
"O=c1[nH]c(=O)n([C@@H]2O[C@H](CO)[C@@H](O)[C@@H]2[18F])cc1I [[^18F]FIAU, 2′-deoxy-2′-[^18F]fluoro-5-iodo-1-β-D-arabinofuranosyluracil]",Log P,[1]; [2],−0.108±0.013
same,Partition coefficients of 1-octanol/PBS,[1],0.780 ± 0.024
"O=c1[nH]c(=O)n([C@@H]2O[C@H](CO)[C@@H](O)[C@@H]2F)cc1Br [[^18F]FBAU, 1-(2-deoxy-2-fluoro-β-D-arabinofuranosyl)-5-bromouracil]",logP,[1]; [2],-0.367 ± 0.025
"O=c1[nH]c(=O)n([C@@H]2O[C@H](CO)[C@@H](O)[C@@H]2[18F])cc1F [[^18F]FFAU, 2′-deoxy-2′-[^18F]fluoro-5-fluoro-1-β-D-arabinofuranosyluracil]",Log P,[1]; [2],−0.952±0.023
same,Partition coefficients of 1-octanol/PBS,[1],0.113 ± 0.006
"CCc1cn([C@@H]2O[C@H](CO)[C@@H](O)[C@@H]2[18F])c(=O)[nH]c1=O [[^18F]FEAU, 2′-deoxy-2′-[^18F]fluoro-5-ethyl-1-β-D-arabinofuranosyluracil]",Log P,[1]; [2],−0.077±0.018
same,Partition coefficients of 1-octanol/PBS,[1],0.837 ± 0.035
"Cc1cn([C@@H]2O[C@H](CO)[C@@H](O)[C@@H]2[18F])c(=O)[nH]c1=O [[^18F]FMAU, 2′-Deoxy-2′-[^18F]fluoro-5-methyl-1-β-D-arabinofuranosyluracil]",Log P,[1]; [2],−0.577±0.003
same,Partition coefficients of 1-octanol/PBS,[1],0.265 ± 0.002
same,ratio of tumor uptake to kidney uptake (T/K),MDA-MB-231 tumor; 1 h p.i.,1.9±0.5
same,ratio of tumor uptake to liver uptake (T/L),MDA-MB-231 tumor; 1 h p.i.,2.1±0.2
same,ratio of tumor uptake to muscle uptake (T/M),MDA-MB-231 tumor; 1 h p.i.,2.8±0.3
same,tumor uptake,MDA-MB-231 tumor; 1 h p.i.,6.4±0.4 % ID/g
same,ratio of tumor uptake to kidney uptake (T/K),MDA-MB-231 tumor; 2 h p.i.,1.9±0.5
same,ratio of tumor uptake to liver uptake (T/L),MDA-MB-231 tumor; 2 h p.i.,2.5±0.2
same,ratio of tumor uptake to muscle uptake (T/M),MDA-MB-231 tumor; 2 h p.i.,3.2±0.7
same,tumor uptake,MDA-MB-231 tumor; 2 h p.i.,7.2±0.6 % ID/g
same,ratio of tumor uptake to kidney uptake (T/K),U-87 MG tumor; 1 h p.i.,1.4±0.2
same,ratio of tumor uptake to liver uptake (T/L),U-87 MG tumor; 1 h p.i.,1.4±0.3
same,ratio of tumor uptake to muscle uptake (T/M),U-87 MG tumor; 1 h p.i.,1.8±0.2
same,tumor uptake,U-87 MG tumor; 1 h p.i.,6.0±0.2 % ID/g
same,ratio of tumor uptake to kidney uptake (T/K),U-87 MG tumor; 2 h p.i.,1.3±0.1
same,ratio of tumor uptake to liver uptake (T/L),U-87 MG tumor; 2 h p.i.,1.5±0.3
same,ratio of tumor uptake to muscle uptake (T/M),U-87 MG tumor; 2 h p.i.,1.9±0.3
same,tumor uptake,U-87 MG tumor; 2 h p.i.,5.6±0.4 % ID/g
"O=c1[nH]c(=O)n([C@@H]2O[C@H](CO)[C@@H](O)[C@@H]2[18F])cc1Cl [[^18F]FCAU, 2′-deoxy-2′-[^18F]fluoro-5-chloro-1-β-D-arabinofuranosyluracil]",Log P,[1]; [2],−0.477±0.030
same,Partition coefficients of 1-octanol/PBS,[1],0.334 ± 0.022
